Source: patent EP0725068A1 (TOKYO TANABE COMPANY LIMITED, priority 1993, dated 1995)
Where a name gives a salt, the structure may show the parent alone. Read-outs that look alike come from different tables or passages of the source.

What was measured:
[1] = target: T1, colonic 5-HT3 receptors (Cavia porcellus, UniProt O70212); experiment: Colonic 5-HT3 receptor antagonism: inhibition of 2-methylserotonin-induced contraction of isolated distal colon (Test 1); type: biochemical, guinea pigs; details: for M (×10^-9 Mole): molar antagonist concentration corresponding to pA2, guinea pig distal colon, 2-methylserotonin; for Kb: pA2, isolated guinea pig distal colon
T1 construct: the distal colons (3-10 cm from the anus) were isolated and suspended in a Magnus tube filled with Krebs solution; from tissue; host or cells: isolated distal colon of male Hartley guinea pig
T1 sequence (O70212 20-490): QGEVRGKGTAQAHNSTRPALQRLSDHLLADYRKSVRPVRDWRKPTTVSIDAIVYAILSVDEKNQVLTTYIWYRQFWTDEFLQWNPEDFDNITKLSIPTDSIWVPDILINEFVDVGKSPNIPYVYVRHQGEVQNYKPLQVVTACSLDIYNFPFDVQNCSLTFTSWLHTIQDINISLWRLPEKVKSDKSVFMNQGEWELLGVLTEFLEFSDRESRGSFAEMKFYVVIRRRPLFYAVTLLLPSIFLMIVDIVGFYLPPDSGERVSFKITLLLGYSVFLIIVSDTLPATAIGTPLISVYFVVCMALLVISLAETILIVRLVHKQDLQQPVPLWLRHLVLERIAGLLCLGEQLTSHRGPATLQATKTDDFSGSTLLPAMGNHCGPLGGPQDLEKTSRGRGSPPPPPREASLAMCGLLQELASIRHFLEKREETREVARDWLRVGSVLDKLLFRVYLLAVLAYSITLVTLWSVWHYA

[2] = target: T2, cardiac 5-HT3 receptors (Rattus norvegicus, UniProt P35563); experiment: Antagonism against von Bezold-Jarisch reflex (BJ reflex): serotonin-induced reflexive bradycardia (Test 2); type: in vivo, SD rats; details: for ED50: rat, intravenous, 5 minutes prior to 30 µg/kg serotonin i.v., anesthetized male SD rats, read-out: ID50 (the source's name)
T2 construct: from tissue; host or cells: whole anaesthetised male SD rat (in vivo)
T2 sequence (P35563 24-483): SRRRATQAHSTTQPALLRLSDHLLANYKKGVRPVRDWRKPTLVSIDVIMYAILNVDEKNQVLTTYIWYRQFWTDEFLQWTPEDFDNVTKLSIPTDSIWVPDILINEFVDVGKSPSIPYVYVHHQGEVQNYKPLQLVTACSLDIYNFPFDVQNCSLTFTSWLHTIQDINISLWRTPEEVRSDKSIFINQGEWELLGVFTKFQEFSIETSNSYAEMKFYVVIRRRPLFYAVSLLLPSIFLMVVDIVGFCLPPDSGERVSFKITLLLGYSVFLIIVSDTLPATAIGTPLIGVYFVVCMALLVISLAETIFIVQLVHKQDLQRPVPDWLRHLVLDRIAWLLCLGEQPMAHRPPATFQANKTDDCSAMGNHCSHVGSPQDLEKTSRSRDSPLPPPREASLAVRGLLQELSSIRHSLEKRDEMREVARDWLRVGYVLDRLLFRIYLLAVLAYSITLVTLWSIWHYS
Protocol: This test was conducted following the method of Fozard, at al. (Arch. Pharmacology, 326, 36-44, 1984). Male SD rats with a body weight of around 300 g were anesthetized by intraabdominal administration of 1.25 g/kg urethane, and an intravenous injection cannula was inserted in the right femoral vein while a sphygmomanometric cannula was inserted into the left femoral artery. The pulse was determined by measuring the electrocardiogram R waves (secondary induction) with an instantaneous pulse rate meter. After confirming satisfactory reproducibility of the reflexive bradycardia induced by intravenous administration of 30 µg/kg serotonin, the test compounds were intravenously administered 5 minutes prior to serotonin administration, the inhibition rates with respect to the initial values were found and the 50% inhibition doses (ID50) were calculated.

[3] = test system: stress-related diarrhea; details: animal models; J. Pharmacol. Exp. Ther. 261, 297 (1992); cited from earlier work
[4] = test system: restraint stress-induced diarrhea; experiment: Inhibiting effect on restraint stress-induced diarrhea, oral administration (Test 3); type: in vivo, Wistar rats; details: for No. of animals with diarrhea / No. of animals used: feces observed 5 hours; for inhibition at 0.01 mg/kg: Rattus norvegicus, po, 1 h, read-out: Inhibition rate
Protocol: This test was conducted following the method of Miyata, et al. (The Journal of Pharmacology and Experimental Therapeutics Vol.261, No.1, 297 (1992)). Nine to ten-week-old male Wistar rats starved overnight were placed in stress cages and their feces produced in 5 hours were observed. Of 15 rats, 14 developed diarrhea. The test compounds were administered orally one hour prior to placement in the stress cage, and the rate of inhibition on diarrhea was measured.

[5] = contraction induced by 2-methylserotonin
[6] = 10μg/kg orally one hour prior to stress cage

SMILES | M (×10^-9 Mole) [1] | Kb [1, 5] | also measured
Cc1[nH]cnc1CN1CCc2c(c3cccc4c3n2CCO4)C1=O [C, 1,2,9,10-tetrahydro-8-[(5-methyl-1H-imidazol-4-yl)methyl]pyrido[3',4':4,5]pyrrolo[1,2,3-de][1,4]benzoxadin-7(8H)-one] | >10 ×10^-9 Mole | > 10 nM | –
Cc1[nH]cnc1CN1CCc2c(c3ccccc3n2C)C1=O.Cl [Allosetron hydrochloride, 2,3,4,5-tetrahydro-5-methyl-2-[(5-methyl-1H-imidazol-4-yl)methyl]-1H-pyrido[4,3-b]indol-1-one hydrochloride] | 21 ×10^-9 Mole | 20 nM | ED50 [2]: 0.28 µg/kg
Cc1[nH]cnc1CN1CCc2c(c3cccc4c3n2CC4)C1=O [B, 4,5,7,8-tetrahydro-9-[(5-methyl-1H-imidazol-4-yl)methyl]-pyrido[4,3-b]pyrrolo[3,2,1-hi]indol-10(9H)-one] | 10 ×10^-9 Mole | > 10 nM | –
Cc1nccn1CC1CCc2c(c3ccccc3n2C)C1=O (stereo not drawn) [Ondansetron hydrochloride, 1,2,3,4-tetrahydro-9-methyl-3-[(2-methyl-1H-imidazol-1-yl)methyl]-4H-carbazol-4-one hydrochloride dihydrate] | 227 ×10^-9 Mole | 251 nM | ED50 [2]: 2 µg/kg; suppression of stress-related diarrhea [3]: suppress stress-related diarrhea in animal models
Cc1[nH]cnc1CN1CCCc2c(c3cccc4c3n2CC4)C1=O [D, 4,5,7,8,9,10-hexahydro-10-[(5-methyl-1H-imidazol-4-yl)methyl]-11H-azepino[4,3-b]pyrrolo[3,2,1-hi]indol-11-one] | >10 ×10^-9 Mole | > 10 nM | –
CN1C2CCC1CC(N1CCc3c(c4cccc5c4n3CCC5)C1=O)C2 (stereo not drawn) [H] | >10 ×10^-9 Mole | > 10 nM | –
Cc1[nH]cnc1CN1CCc2c(c3cccc4c3n2CCCC4)C1=O [E] | >10 ×10^-9 Mole | – | pA2 ([1]; isolated guinea pig distal colon, contraction induced by 2-methylserotonin): <8.0
Cc1[nH]cnc1CN1CCCc2c(c3cccc4c3n2CCC4)C1=O [F, 11-[(5-methyl-1H-imidazol-4-yl)methyl]-5,6,9,10,11,12-hexahydro-4H,8H-azepino[3',4':4,5]pyrrolo[3,2,1-ij]quinolin-12-one] | >10 ×10^-9 Mole | > 10 nM | –
Cc1[nH]cnc1CN1CCc2c(c3cccc4c3n2CCC4)C1=O [A, 5,6,9,10-tetrahydro-10-[(5-methyl-1H-imidazol-4-yl)methyl]-4H-pyrido[3',4':4,5]pyrrolo[3,2,1-ij] quinolin-11(8H)-one] | 10 ×10^-9 Mole | 10 nM | ED50 [2]: 0.11 µg/kg; No. of animals with diarrhea / No. of animals used [4, 6]: 8/10; inhibition at 0.01 mg/kg [4]: 20%
Cc1[nH]cnc1CN1CCc2c(c3cccc4c3n2-c2ccccc2CC4)C1=O [G, 3-[(4-methyl-1-H-imidazol-5-yl)methyl]-1,2,3,4,8,9-hexahydro-pyrido[4',3':2,3]indolo[1,7a,7-ab][1]benzazepin-4-one] | >10 ×10^-9 Mole | > 10 nM | –
Cc1[nH]cnc1CN1CCc2c(c3cccc4c3n2C(c2ccccc2)CC4)C1=O.Cl (stereo not drawn) [Compound 1, 5,6,8,9,10,11-hexahydro-10-[(5-methyl-1H-imidazol-4-yl)methyl]-6-phenyl-11-oxo-4H-pyrido[3',4':4,5]pyrrolo[3,2,1-ij] quinoline hydrochloride] | 0.41 ×10^-9 Mole | 0.398 nM | selectivity for colonic 5-HT3 receptors relative to Allosetron ([1]; from Tests 1 and 2 (colon vs heart), vs Allosetron): about 90 times; selectivity for colonic 5-HT3 receptors relative to Ondansetron ([1]; from Tests 1 and 2 (colon vs heart), vs Ondansetron): about 125 times; selectivity for colonic 5-HT3 receptors relative to YM-060 ([1]; from Tests 1 and 2 (colon vs heart), vs YM-060): about 190 times; selectivity for colonic 5-HT3 receptors relative to compound A ([1]; from Tests 1 and 2 (colon vs heart), vs compound A): about 100 times; activity on the heart receptors relative to Ondansetron ([2]; BJ reflex ID50 ratio, vs Ondansetron): about 4 times; activity on the heart receptors relative to YM-060 ([2]; BJ reflex ID50 ratio, vs YM-060): about 1/19; ED50 [2]: 0.5 µg/kg; No. of animals with diarrhea / No. of animals used [4, 6]: 5/10; inhibition at 0.01 mg/kg [4]: 50%
O=C1c2c(n3c4c(cccc24)CCC3)CCN1C1CN2CCC1CC2 (stereo not drawn) [I, 10-(1-azabicyclo-[2,2,2]oct-3-yl)-5,6,8,9,10,11-hexahydro-4H-pyrido[3',4':4,5]pyrrolo[3,2,1-ij]quinolin-11-one] | >10 ×10^-9 Mole | > 10 nM | –
CN1C2CCCC1CC(NC(=O)c1nn(C)c3ccccc13)C2 (stereo not drawn) [Granisetron, N-(endo-9-methyl-9-azabicyclo[3,3,1]non-3-yl)-1-methylindazol-3-carboxamide hydrochloride] | – | – | suppression of stress-related diarrhea [3]: suppress stress-related diarrhea in animal models
Cl.Cn1cc(C(=O)[C@@H]2CCc3nc[nH]c3C2)c2ccccc21 [YM-060, (R)-(-)-5-[(1-methylindol-3-yl)carbonyl]-4,5,6,7-tetrahydrobenzimidazole hydrochloride] | 4.5 ×10^-9 Mole | 3.98 nM | No. of animals with diarrhea / No. of animals used [4, 6]: 7/10; inhibition at 0.01 mg/kg ([4]; 10μg/kg orally one hour prior to stress cage, inhibition of diarrhea): 30%; suppression of stress-related diarrhea [3]: suppress stress-related diarrhea in animal models
